Data reported in patent publication US9567336B2, “Conjugated TLR7 and/or TLR8 and TLR2 agonists” (CAYLA, priority 2012, dated 2017).

Experiments:
murine TLR7 = biological target: T1, murine TLR7 (Mus musculus, UniProt P58681); assay: HEK-Blue mTLR7 NF-κB/AP-1 SEAP reporter cell assay; format: cell-based; details: HEK-Blue mTLR7 reporter cells, 10 μg/mL to 10 pg/ml, 24 hours, OD at 655 nm; FIGS. 2A, 2B
T1 construct: host or cells: HEK293 (HEK-Blue mTLR7)
T1 sequence (P58681 27-1050): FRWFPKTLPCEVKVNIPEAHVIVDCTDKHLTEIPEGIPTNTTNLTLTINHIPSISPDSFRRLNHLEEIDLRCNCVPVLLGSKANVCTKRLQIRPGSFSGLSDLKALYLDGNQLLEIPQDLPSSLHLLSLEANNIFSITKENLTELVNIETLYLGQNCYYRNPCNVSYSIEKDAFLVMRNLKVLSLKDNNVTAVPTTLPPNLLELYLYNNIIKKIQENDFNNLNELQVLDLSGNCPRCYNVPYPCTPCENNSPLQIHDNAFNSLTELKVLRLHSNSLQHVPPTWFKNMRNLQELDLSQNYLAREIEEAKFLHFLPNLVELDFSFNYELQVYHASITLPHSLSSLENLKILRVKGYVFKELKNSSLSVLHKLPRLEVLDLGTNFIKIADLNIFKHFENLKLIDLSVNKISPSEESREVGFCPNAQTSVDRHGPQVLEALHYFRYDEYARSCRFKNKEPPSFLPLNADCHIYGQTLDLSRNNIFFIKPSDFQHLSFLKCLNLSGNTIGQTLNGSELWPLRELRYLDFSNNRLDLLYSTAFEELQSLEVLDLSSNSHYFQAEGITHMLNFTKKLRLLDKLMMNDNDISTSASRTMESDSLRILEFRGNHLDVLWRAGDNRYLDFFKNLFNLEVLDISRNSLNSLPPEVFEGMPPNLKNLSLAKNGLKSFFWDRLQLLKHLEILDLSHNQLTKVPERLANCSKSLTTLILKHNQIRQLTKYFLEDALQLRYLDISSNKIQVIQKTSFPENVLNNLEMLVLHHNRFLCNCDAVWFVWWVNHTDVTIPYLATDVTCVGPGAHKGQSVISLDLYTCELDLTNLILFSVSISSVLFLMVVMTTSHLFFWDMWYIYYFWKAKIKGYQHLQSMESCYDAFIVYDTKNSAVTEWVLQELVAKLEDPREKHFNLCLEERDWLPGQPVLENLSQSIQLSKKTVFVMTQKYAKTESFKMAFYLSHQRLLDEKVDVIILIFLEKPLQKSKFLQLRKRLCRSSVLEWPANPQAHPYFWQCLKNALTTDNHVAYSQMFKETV
Protocol: (§1) Some conjugated compounds of the invention were tested for their ability to activate TLR7 and TLR2 receptor signaling. Cell-based assays were carried out using TLR7 and TLR2 reporter cell lines (InvivoGen). The reporter cell lines are engineered HEK293 cells, a human embryonic kidney cell line (ATCC, CRL-1573) that stably express either murine TLR7 (HEK-Blue™ mTLR7) or human TLR7 (HEK-Blue™ hTLR7) or murine TLR2 (HEK-Blue™ mTLR2) or human TLR2 (HEK-Blue™ hTLR2) with an NF-κB-inducible secreted embryonic alkaline phosphatase (SEAP) as the reporter gene. The SEAP reporter gene is placed under the control of the NF-κB and AP-inducible promoter. Stimulation with the corresponding TLR ligand activates NF-κB and AP-1, which induces the production of SEAP. Detection of SEAP is measured following culturing cells in HEK-Blue™ Detection media (InvivoGen). HEK-Blue™ Detection contains a SEAP substrate, which upon hydrolysis by SEAP produces a colorimetric change allowing for detection of SEAP as the protein is secreted. […] These assays were carried out using RAW-Blue™ Cells (InvivoGen), derived from RAW 264.7 mouse leukemic monocytic macrophage cell line (ATCC, CRL 2278) stably overexpressing a NF-κB/AP-1 inducible SEAP reporter constructs.
(§2) To perform the assay, cells were seeded on 96 well microliter plates at 50,000 or 100,000 cells per well for HEK-Blue™ Cells and RAW-Blue™ Cells respectively, and cultured at 37° C. in the presence of the conjugated compounds. The conjugated compounds were prepared as follows: First, stock solutions of the small molecule conjugated compounds of the invention were prepared in ethanol or water to a concentration of 10 mg/ml. A working dilution of the conjugated TLR7-TLR2 small molecules was made up in water and added to cells at a final range of concentrations from 10 μg/mL to 10 pg/ml. The working dilutions of the conjugated TLR7-TLR2 small molecules as the stated concentrations were directly added to the reporter cell lines and incubated at 37° C. for 24 hours. After 24 hours of incubation, the effect on reporter gene activity was determined by reading the OD at 655 nm using iMark™ Microplate Reader (BIO-RAD).
(§3) The conjugated compounds were tested alone for their ability to specifically activate TLR7 and TLR2, alongside the known TLR7 activators R848 or CL264 (InvivoGen) and the TLR2 agonists Pam2CSK4 or Pam3CSK4 (InvivoGen). The specificity of the TLR activity was determined by use of reporter cell lines to the other TLRs (data not shown). […] The molecules show a tendency to activate mouse TLR7 with greater sensitivity than human TLR7. […] Furthermore, dose-dependent responses of the conjugated compounds indicate significant TLR activities of TLR7 and TLR2 compared to the corresponding controls.

human TLR2 = biological target: T2, human TLR2 (Homo sapiens, UniProt O60603); assay: HEK-Blue hTLR2 NF-κB/AP-1 SEAP reporter cell assay; format: cell-based; details: HEK-Blue hTLR2 reporter cells, 10 μg/mL to 10 pg/ml, 24 hours, OD at 655 nm; FIGS. 3A, 3B
T2 construct: host or cells: HEK293 (HEK-Blue hTLR2)
Protocol: as §1, §2, §3

[1] = test system: NF-κB in RAW-Blue™ Cells (RAW 264.7, endogenous TLR7 and TLR2); assay: RAW-Blue Cells NF-κB/AP-1 inducible SEAP reporter assay; format: cell-based, mouse; details: murine monocytic macrophage cell line RAW 264.7, 24 hours, OD at 655 nm; FIGS. 5A, 5B
Protocol: as §1, §2, §3

human TLR7 = biological target: T3, human TLR7 (Homo sapiens, UniProt Q9NYK1); assay: HEK-Blue hTLR7 NF-κB/AP-1 SEAP reporter cell assay; format: cell-based; details: HEK-Blue hTLR7 reporter cells, 10 μg/mL to 10 pg/ml, 24 hours, OD at 655 nm; FIGS. 1A, 1B
T3 construct: host or cells: HEK293 (HEK-Blue hTLR7)
T3 sequence (Q9NYK1 27-1049): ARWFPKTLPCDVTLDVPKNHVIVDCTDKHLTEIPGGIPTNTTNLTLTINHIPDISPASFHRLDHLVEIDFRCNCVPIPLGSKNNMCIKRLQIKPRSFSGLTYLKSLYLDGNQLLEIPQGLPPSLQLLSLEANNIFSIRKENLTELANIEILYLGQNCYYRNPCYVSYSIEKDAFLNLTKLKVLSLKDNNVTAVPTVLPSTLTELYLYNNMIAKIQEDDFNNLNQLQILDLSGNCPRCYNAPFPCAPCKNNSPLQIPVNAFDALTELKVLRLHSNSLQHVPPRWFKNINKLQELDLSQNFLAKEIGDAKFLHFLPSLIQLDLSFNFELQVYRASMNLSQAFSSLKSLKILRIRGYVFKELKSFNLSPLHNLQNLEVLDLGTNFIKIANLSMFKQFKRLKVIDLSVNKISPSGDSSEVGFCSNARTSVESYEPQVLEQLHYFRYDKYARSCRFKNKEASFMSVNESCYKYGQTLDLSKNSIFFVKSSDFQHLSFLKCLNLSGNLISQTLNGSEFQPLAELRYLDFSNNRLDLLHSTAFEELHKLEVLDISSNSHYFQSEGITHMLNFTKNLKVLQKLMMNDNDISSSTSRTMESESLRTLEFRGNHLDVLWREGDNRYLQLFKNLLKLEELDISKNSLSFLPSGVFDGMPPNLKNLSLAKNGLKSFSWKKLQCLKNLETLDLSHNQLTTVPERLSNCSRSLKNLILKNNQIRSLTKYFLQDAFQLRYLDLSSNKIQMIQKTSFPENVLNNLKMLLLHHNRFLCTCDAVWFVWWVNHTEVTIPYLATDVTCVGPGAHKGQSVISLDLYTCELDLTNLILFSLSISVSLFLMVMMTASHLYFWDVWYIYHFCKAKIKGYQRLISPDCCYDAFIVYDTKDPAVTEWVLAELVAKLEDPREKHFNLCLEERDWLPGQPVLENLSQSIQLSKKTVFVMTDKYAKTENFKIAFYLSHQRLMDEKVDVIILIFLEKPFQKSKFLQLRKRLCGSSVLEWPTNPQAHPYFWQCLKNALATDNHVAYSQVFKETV
Protocol: as §1, §2, §3

murine TLR2 = biological target: T4, murine TLR2 (Mus musculus, UniProt Q9QUN7); assay: HEK-Blue mTLR2 NF-κB/AP-1 SEAP reporter cell assay; format: cell-based; details: HEK-Blue mTLR2 reporter cells, 10 μg/mL to 10 pg/ml, 24 hours, OD at 655 nm; FIG. 4
T4 construct: host or cells: HEK293 (HEK-Blue mTLR2)
Protocol: as §1, §2, §3

T2 sequence (O60603 21-784): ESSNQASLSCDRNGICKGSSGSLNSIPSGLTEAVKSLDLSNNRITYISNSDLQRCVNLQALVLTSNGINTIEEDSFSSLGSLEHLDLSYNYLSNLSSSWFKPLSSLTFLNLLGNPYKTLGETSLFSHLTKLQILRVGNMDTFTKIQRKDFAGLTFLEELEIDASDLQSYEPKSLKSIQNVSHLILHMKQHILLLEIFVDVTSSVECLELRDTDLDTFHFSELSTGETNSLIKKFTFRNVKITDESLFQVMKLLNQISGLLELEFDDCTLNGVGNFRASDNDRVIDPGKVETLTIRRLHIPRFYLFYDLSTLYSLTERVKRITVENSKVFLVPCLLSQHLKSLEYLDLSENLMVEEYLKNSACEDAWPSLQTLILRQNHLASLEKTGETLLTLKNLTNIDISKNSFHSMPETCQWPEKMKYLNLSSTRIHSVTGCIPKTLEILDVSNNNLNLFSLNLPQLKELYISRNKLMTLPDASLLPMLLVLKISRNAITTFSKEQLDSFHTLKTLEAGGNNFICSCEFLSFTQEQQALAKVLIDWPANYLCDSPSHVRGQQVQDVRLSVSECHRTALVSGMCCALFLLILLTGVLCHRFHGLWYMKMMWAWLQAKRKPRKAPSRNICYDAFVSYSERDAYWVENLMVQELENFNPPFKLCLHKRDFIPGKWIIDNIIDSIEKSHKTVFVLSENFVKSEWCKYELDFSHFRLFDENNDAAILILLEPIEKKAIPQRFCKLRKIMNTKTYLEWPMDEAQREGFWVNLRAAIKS
T4 sequence (Q9QUN7 25-784): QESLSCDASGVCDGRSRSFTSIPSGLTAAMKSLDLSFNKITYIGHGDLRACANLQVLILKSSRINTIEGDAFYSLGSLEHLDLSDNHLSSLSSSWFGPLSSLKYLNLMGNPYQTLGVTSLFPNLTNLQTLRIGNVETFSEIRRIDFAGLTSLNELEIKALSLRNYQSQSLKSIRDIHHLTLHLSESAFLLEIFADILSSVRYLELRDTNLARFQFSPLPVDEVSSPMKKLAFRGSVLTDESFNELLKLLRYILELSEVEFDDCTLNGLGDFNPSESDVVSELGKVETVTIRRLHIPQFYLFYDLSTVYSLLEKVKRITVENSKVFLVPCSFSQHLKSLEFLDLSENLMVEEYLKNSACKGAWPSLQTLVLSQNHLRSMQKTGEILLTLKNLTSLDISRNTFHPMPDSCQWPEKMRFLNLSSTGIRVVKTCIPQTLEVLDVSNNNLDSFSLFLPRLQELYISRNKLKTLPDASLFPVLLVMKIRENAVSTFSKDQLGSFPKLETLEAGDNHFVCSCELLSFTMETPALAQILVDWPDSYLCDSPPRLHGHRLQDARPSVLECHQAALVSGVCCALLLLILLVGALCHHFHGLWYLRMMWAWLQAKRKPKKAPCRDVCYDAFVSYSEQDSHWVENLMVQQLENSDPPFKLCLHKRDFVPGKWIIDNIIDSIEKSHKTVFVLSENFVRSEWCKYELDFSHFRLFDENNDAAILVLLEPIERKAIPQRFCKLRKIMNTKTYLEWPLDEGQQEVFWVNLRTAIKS

Row | ability to activate TLR7 receptors (murine TLR7) (murine TLR7) | ability to activate TLR2 receptor (human TLR2) (human TLR2) | ability to activate TLR7 receptors (human TLR7) (human TLR7) | ability to activate TLR2 receptor (murine TLR2) (murine TLR2) | SMILES | induction of NF-κB in RAW-Blue cells [1]
1 | activate TLR7 receptors | activate TLR2 receptor | activate TLR7 receptors |  | CCCCCCCCCCCCCCCC(=O)N[C@@H](CSCC(COC(=O)CCCCCCCCCCCCCCC)OC(=O)CCCCCCCCCCCCCCC)C(=O)Nc1ccc(Cn2c(O)nc3c(N)nc(NCCCC)nc32)cc1 (mixture of isomers) [CL446, (R)-3-(3-(4-((6-amino-2-(butylamino)-8-hydroxy-9H-purin-9-yl)methyl)phenylamino)-3-oxo-2-palmitamidopropylthio)propane-1,2-diyl dipalmitate] | activate NF-κB
2 | activate TLR7 receptors | activate TLR2 receptor | activate TLR7 receptors |  | CCCCCCCCCCCCCCCC(=O)OCC(CSC[C@H](N)C(=O)N[C@@H](CO)C(=O)Nc1ccc(Cn2c(O)nc3c(N)nc(NCCCC)nc32)cc1)OC(=O)CCCCCCCCCCCCCCC (stereo partly drawn) [CL453, 3-((R)-2-amino-3-((S)-1-(4-((6-amino-2-(butylamino)-8-hydroxy-9H-purin-9-yl)methyl)phenylamino)-3-hydroxy-1-oxopropan-2-ylamino)-3-oxopropylthio)propane-1,2-diyl dipalmitate] | activate NF-κB
3 | activate TLR7 receptors | activate TLR2 receptor | activate TLR7 receptors | activate TLR2 receptor | CCCCCCCCCCCCCC(=O)OCCSC[C@H](N)C(=O)Nc1ccc(Cn2c(O)nc3c(N)nc(NCCCC)nc32)cc1 [CL555, (R)-2-(2-amino-3-(4-((6-amino-2-(butylamino)-8-hydroxy-9H-purin-9-yl)methyl)phenylamino)-3-oxopropylthio)ethyl tetradecanoate] | activate NF-κB
4 | activate TLR7 receptors | activate TLR2 receptor | activate TLR7 receptors | activate TLR2 receptor | CCCCCCCCCCCCCCCC(=O)OCCSC[C@H](N)C(=O)Nc1ccc(Cn2c(O)nc3c(N)nc(NCCCC)nc32)cc1 [CL556, (R)-2-(2-amino-3-(4-((6-amino-2-(butylamino)-8-hydroxy-9H-purin-9-yl)methyl)phenylamino)-3-oxopropylthio)ethyl palmitate] | activate NF-κB
5 | activate TLR7 receptors | activate TLR2 receptor | activate TLR7 receptors | activate TLR2 receptor | CCCCCCCCCCCCCCCCCC(=O)OCCSC[C@H](N)C(=O)Nc1ccc(Cn2c(O)nc3c(N)nc(NCCCC)nc32)cc1 [CL557, (R)-2-(2-amino-3-(4-((6-amino-2-(butylamino)-8-hydroxy-9H-purin-9-yl)methyl)phenylamino)-3-oxopropylthio)ethyl stearate] | activate NF-κB
6 | activate TLR7 receptors | activate TLR2 receptor | activate TLR7 receptors | activate TLR2 receptor | CCCCCCCCCCCCCC(=O)OCCSC[C@H](N)C(=O)N[C@@H](CCC(=O)Nc1ccc(Cn2c(O)nc3c(N)nc(NCCCC)nc32)cc1)C(=O)OC [CL572, 2-((R)-2-amino-3-((S)-5-(4-((6-amino-2-(butylamino)-8-hydroxy-9H-purin-9-yl)methyl)phenylamino)-1-methoxy-1,5-dioxopentan-2-ylamino)-3-oxopropylthio)ethyl tetradecanoate] | 
